The values that follow come from patent publication US7569550B2, “14 and 15 membered ring compounds” (Glaxo Group Limited, priority 2003, dated 2009).

Experiment [1] concerns erythromycin resistant strains of Streptococcus pneumoniae. Kind of experiment: MIC, standard broth dilution method in microtitre. Type of experiment: cell-based. As for the experimental part:
(§1) Using a standard broth dilution method in microtitre, compounds were tested for antibacterial activity. The compounds in the above examples gave minimum inhibitory concentrations (MICs) less than 1 microgram per millilitre against erythromycin-sensitive and erythromycin-resistant strains of Streptococcus pneumoniae and Streptococcus pyogenes.

Experiment [2] deals with erythromycin resistant strains of Streptococcus pyogenes. The experiment in a line: MIC, standard broth dilution method in microtitre. In kind it is cell-based. As for the experimental part:
as §1

Where a name gives a salt, the structure may show the parent alone.

Consider `CC[C@@H]1OC(=O)[C@H](C)[C@H](O[C@@H]2C[C@](C)(OC)[C@H](OCCCNCCNc3cc4c(cc3F)c(=O)c(C(=O)O)cn4C3CC3)[C@H](C)O2)[C@@H](C)[C@H](O[C@H]2O[C@@H](C)C[C@@H](N(C)C)[C@H]2O)[C@](C)(OC)C[C@H](C)C(=O)[C@H](C)[C@H]2OC(=O)O[C@@]12C` [Example 11, 4″-O-{3-[2-(3-Carboxy-1-cyclopropyl-6-fluoro-4-oxo-1,4-dihydro-quinolin-7-ylamino)ethylamino]-propyl}-6-O-methyl-erythromycin A 11,12-carbonate formate], for which the minimal inhibitory concentration (MIC) in experiment [1] and in experiment [2] was at most 1 µg/mL each time.

As for `CC[C@@H]1OC(=O)[C@H](C)[C@H](O[C@@H]2C[C@](C)(OC)[C@H](OCCCNCCNc3nc4c(cc3F)c(=O)c(C(=O)O)cn4CC)[C@H](C)O2)[C@@H](C)[C@H](O[C@H]2O[C@@H](C)C[C@@H](N(C)C)[C@H]2O)[C@](C)(OC)C[C@H](C)C(=O)[C@H](C)[C@H]2OC(=O)O[C@@]12C` [Example 12, 4″-O-{3-[2-(3-Carboxy-1-ethyl-6-fluoro-4-oxo-1,4-dihydro-[1,8]naphthyridin-7-ylamino)ethylamino]-propyl}-6-O-methyl-erythromycin A 11,12-carbonate formate], the MIC in experiment [1] and in experiment [2] was at most 1 µg/mL throughout.

Take `CC[C@@H]1OC(=O)[C@H](C)[C@H](O[C@@H]2C[C@](C)(OC)[C@H](OCCCNCCCc3ccc4c(c3)c(=O)c(C(=O)O)cn4CC)[C@H](C)O2)[C@@H](C)[C@H](O[C@H]2O[C@@H](C)C[C@@H](N(C)C)[C@H]2O)[C@](C)(OC)C[C@H](C)C(=O)[C@H](C)[C@H]2OC(=O)O[C@@]12C` [Example 9, 4″-O-{3-[3-(3-Carboxy-1-ethyl-4-oxo-1,4-dihydro-quinolin-6-yl)propylamino]-propyl}-6-O-methyl-erythromycin A 11,12-carbonate formate]: the MIC in experiment [1] and in experiment [2] was at most 1 µg/mL each time.

Turning to `CCc1cc(C(=O)O)c(=O)n2ccc(NCCNCCCO[C@H]3[C@H](C)O[C@@H](O[C@H]4[C@H](C)[C@@H](O[C@@H]5O[C@H](C)C[C@H](N(C)C)[C@H]5O)[C@](C)(OC)C[C@@H](C)C(=O)[C@@H](C)[C@H]5NC(=O)O[C@]5(C)[C@@H](CC)OC(=O)[C@@H]4C)C[C@@]3(C)OC)cc12` [Example 26, 4″-O-{3-[2-(3-Carboxy-1-ethyl-4-oxo-4-H-quinolizin-7-ylamino)-ethylamino]-propyl}-6-O-methyl-11-desoxy-11-(R)-amino-erythromycin A 11,12-carbamate formate], the MIC in experiment [1] and in experiment [2] was at most 1 µg/mL in each case.

On to `CC[C@@H]1OC(=O)[C@H](C)[C@H](O[C@@H]2C[C@](C)(OC)[C@H](OCCCNCCOc3ccc4c(c3)c(=O)c(C(=O)O)cn4CC)[C@H](C)O2)[C@@H](C)[C@H](O[C@H]2O[C@@H](C)C[C@@H](N(C)C)[C@H]2O)[C@](C)(OC)C[C@H](C)C(=O)[C@H](C)[C@H]2OC(=O)O[C@@]12C` [Example 3, 4″-O-{3-[2-(3-Carboxy-1-ethyl-4-oxo-1,4-dihydro-quinolin-6-yloxy)-ethylamino]-propyl}-6-O-methyl-erythromycin A 11,12-carbonate bis trifluoroacetate], for which the MIC in experiment [1] and in experiment [2] was at most 1 µg/mL in each case.

As to `CC[C@@H]1OC(=O)[C@H](C)[C@H](O[C@@H]2C[C@](C)(OC)[C@H](OCCCNCCNc3cc4c(=O)c(C(=O)O)cn(C5CC5)c4cc3Cl)[C@H](C)O2)[C@@H](C)[C@H](O[C@H]2O[C@@H](C)C[C@@H](N(C)C)[C@H]2O)[C@](C)(OC)C[C@H](C)C(=O)[C@H](C)[C@H]2OC(=O)O[C@@]12C` [Example 10, 4″-O-{3-[2-(3-Carboxy-7-chloro-1-cyclopropyl-4-oxo-1,4-dihydro-quinolin-6-ylamino)ethylamino]-propyl}-6-O-methyl-erythromycin A 11,12-carbonate formate], the MIC in experiment [1] and in experiment [2] was at most 1 µg/mL each time.
